A short description of data set [1]: Brain permeability (brain:plasma ratio). Type of data set: in vivo. The following applies: read-out: Brain:Plasma (B:P) Average. The protocol:
Brain permeability can be measured by various methods known in the art. For example, brain permeability can be measured by calculating the ratio between the concentration of a compound of the application in the brain and the concentration of the compound in the plasma (i.e., BP ratio). In one aspect, a compound of the application has a B:P ratio of at least 1.0, 1.1, 1.2, 1.3, 1.4, 1.5, 1.6, 1.7, 1.8, 1.9, or 2.0 at 1 hour after administration of the compound to a subject. In one aspect, a compound of the application has a B:P ratio of at least 1.5, 1.6, 1.7, 1.8, 1.9, or 2.0 at 1 hour after administration of the compound to a subject. In one aspect, a compound of the application has a B:P ratio of at least 1.4, 1.5, 1.6, 1.7, 1.8, 1.9, 2.0, 2.1, 2.2, or 2.3 at 2 hours after administration of the compound to a subject. In one aspect, a compound of the application has a B:P ratio of at least 1.9, 2.0, 2.1, 2.2, or 2.3 at 2 hours after administration of the compound to a subject. In one aspect, a compound of the application has a B:P ratio of at least 1.7, 1.8, 1.9, 2.0, 2.1, 2.2, 2.3, 2.4, or 2.5 at 4 hours after administration of the compound to a subject. In one aspect, a compound of the application has a B:P ratio of at least 2.2, 2.3, 2.4, or 2.5 at 4 hours after administration of the compound to a subject.

Data set [2] is described as follows: Pharmacokinetic properties after IV and PO administration. Type of data set: in vivo.
The test system of data set [3] is GL261 glioblastoma cells injected intra-cranially. Kind of data set: GL261 murine model of glioblastoma (intra-cranial), survival. Type of data set: in vivo, C57BL/6 mice. How it is done: The anti-tumor activity of Compound 121, as a single agent, was studied in the GL261 murine model of human glioblastoma. Murine GL261 glioblastoma cells were injected intra-cranially into syngeneic, immune-competent hosts (C57BL/6). In order for oral therapeutics to be effective, it is required that the therapeutic be able to cross the blood-brain barrier in order to achieve sufficient levels in the brain to exert an anti-tumor effect. Survival was the major endpoint for the study. The mice either succumbed to the tumor or were euthanized based on severity of tumor-dependent morbidity. Mice that achieved long-term survival (>80 days) were re-challenged with a sub-cutaneous injection of GL261 cells to assess the development of a durable immune response to GL261. Mice that underwent the re-challenge phase were not treated with Compound 121.
GL261 cells (1×10^5 cells) were implanted into the brain of a C57BL/6 host using stereotactice injection. Compound 121 was dosed orally once per day at 1 mg/kg (N=10) for 45 days beginning 3 days post-tumor cell implantation. Compound Y was dosed orally once per day at 5 mg/kg (N=10) for 45 days beginning 3 days post-tumor implantation. A vehicle was administered to a control group of mice (N=10) per the same schedule.
Mice were monitored for signs of tumor dependent morbidity, including head tilt, hunching, ataxia, and limb weakness. Mice were euthanized when cumulative signs of high tumor burden were evident.

Data set [4] has as its system GL261 cells. Kind of data set: MTT cell growth inhibition (GI50), GL261. It counts as cell-based, murine. As to conditions: 3 days. How it is done: (§1) The drug concentration required to block net cell growth by 50% relative to a control sample is measured as the GI50. The GI50s for several of the compounds of the application were assayed as described.
(§2) MTT assay: U87 and GL261 cells were seeded in 96-well plate (6×10^3 cells in 100 μl of DMEM+10% FBS media per well) and incubated overnight at 37° C. with 5% CO2. All test compounds were diluted (10 point 2-fold serial dilution) in a separate 96-well plate to yield 10× of final concentrations (0.5-256 nM). A volume of 11 μl of 10× dilutions was added to appropriate wells (n=3). To value (reflecting the starting number of cells upon drug treatment) was determined by following steps as described below. After 3 days incubation at 37° C. with 5% CO2, 10 μl of MTT solution (5 mg/ml in PBS) was added to each well and plates were incubated at 37° C. for 3 h to allow MTT to form formazan crystals by reacting with metabolically active cells. 100 μl of 20% SDS was added to each well and plates were incubated overnight at 37° C. with 5% CO2. Afterward, OD570 was measured using microplate reader. The cell growth percentage of control was calculated according to percentage of control=(T−T0)/(C−T0)×100% or OD value of the test well exposure to test drug—OD value at time zero/(OD of the control well without drug treatment−OD value at time zero)×100%. Growth inhibition curves and GI50 were determined using GraphPad Prism 5 software.

Data set [5] relates to U87 cells. Kind of data set: MTT cell growth inhibition (GI50), U87. As to conditions: 3 days. Type of data set: cell-based, human. How it is done:
as §1, §2

Data set [6] has as its system Jurkat. The data set is described as follows: Cell growth inhibition (GI50), Jurkat. It counts as cell-based. The protocol:
as §1

Data set [7] deals with HT-29. The data set is described as follows: Cell growth inhibition (GI50), HT-29. Type of data set: cell-based. How it is done:
as §1

Setting [8] is: in vivo, IV Administration (5 mg/kg).

Where “and” joins values, the source holds several entries; their conditions need not be identical. Equal values may be shown once. Read-outs that look alike come from different tables or passages of the source.

What is called Cmax is the highest concentration seen after dosing. Turning to `O=C(Cc1ccc(-c2ccc(N3CCOCC3)cc2)cn1)NCc1cccc(F)c1` [Compound Y, reference compound], in data set [1] (time point 0.25 h), the Kp at 0.25 h came out at 1.56. Besides, in data set [1] (time point 0.5 h), the Kp at 0.5 h turned out to be 1.46. Moreover, the Kp at 1 h in data set [1] (time point 1 h) is 1.33. Further, in data set [1] (time point 2 h), the Kp at 2 h worked out at 0.712. The Kp at 4 h in data set [1] (time point 4 h) came to 0.834. In data set [1] (time point 6 h), the Kp at 6 h stood at 0.633. Besides, the Kp at 8 h in data set [1] (time point 8 h) was 0.685. In data set [2] (IV Administration (5 mg/kg)), the “AUCIV (dose-normalized)” value worked out at 553 kg·ng·h/mL/mg and the t0.5 is 0.364 h. For the same molecule, the “F (%) = 100 × AUCpo/AUCIV” value in data set [2] (PO 20 mg/kg vs IV 5 mg/kg) turned out to be 39.3%. In addition, the “AUCPO (dose-normalized)” value in data set [2] (PO Administration (20 mg/kg)) was found to be 217 kg·ng·h/mL/mg. Besides, in data set [2] (setting [8]), the C0 amounted to 4620 ng/mL and the clearance was 30.2 mL/min/kg. In addition, the Vd in data set [2] (in vivo, IV Administration (5 mg/kg), read-out: Vss) was found to be 0.962 L/kg. Further, the Cmax in data set [2] (in vivo, PO Administration (20 mg/kg)) was 2590 ng/mL. Further, the “Activity in GL261 model” value in data set [3] (dosed once daily at >20 mg/kg) is “demonstrated activity”. The Effect on survival result in data set [3] (orally once per day at 5 mg/kg for 45 days) is given as “only a marginal, insignificant effect on survival”.

In general, GI50 refers to the concentration giving 50% growth inhibition. Regarding `Cc1cc(N2CCOC[C@@H]2C)ccc1-c1ccc(CC(=O)NCc2ccccc2)nc1` (stereo in doubt) [Compound 104], the GI50 was 10 nM and 5.3 nM in data set [4]; 4 nM in data set [5]; 2.5 nM in data set [6]; 2.3 nM in data set [6] (Homo sapiens); 2.5 nM in data set [7] (HT-29); 3.1 nM in data set [7] (Homo sapiens, HT-29, HT-29).

Consider `Cc1nc(CC(=O)NCc2cccc(F)c2)ccc1-c1ccc(N2CCOC[C@@H]2C)cc1` [Compound 113], for which the GI50 in data set [4] is 120 nM and 99 nM; in data set [4] (Mus musculus, GL261, 72 h), 180 nM; in data set [7] (Homo sapiens, HT-29, HT-29), 46 nM.

Regarding `C[C@H]1COCCN1c1ccc(-c2ccc(CC(=O)NCc3ccccc3)nc2)cc1` [Compound 108], the GI50 in data set [4] (Mus musculus, GL261, 72 h) came to 6.8 nM; in data set [5] (Homo sapiens, U-87 MG, 72 h) it was 6.6 nM; in data set [7] (Homo sapiens, HT-29, HT-29) it was 3 nM.
